Patent US10624920B2, “Use of alginate oligomers in combating biofilms” (Algipharma AS, priority 2007, dated 2020)

Experiments:
Format in all cases: cell-based
[1] = system: Pseudomonas aeruginosa biofilms; assay: MBEC assay, Pseudomonas biofilms generated 6 hr with mucin, pretreated overnight with alginate oligomer and mucin, then antibiotic; conditions: 6 hr biofilm with mucin
Protocol: (§1) The MBEC method used was adapted from Moskowitz S M, et al (2004) J Clin Microbiol 42:1915-1922. After retrieval from −80° C. storage, bacterial isolates were grown on BA and then grown overnight in TSB. After dilution of the bacterial cultures to 0.5 McFarland in CAMHB with or without mucin (2.5 g/l), 100 μl was transferred to the wells of a flat-bottom 96-well microtiter plate. In Example 3, bacterial cultures were diluted to 0.5 McFarland in CAMHB with mucin (2.5 g/1) and alginate and 100 μl was transferred to the wells of a flat-bottom 96-well microtiter plate
(§2) Plates were then wrapped in parafilm to prevent dehydration and incubated at 37° C. to allow biofilm formation. Incubation times and conditions varied as described below.
(§3) After biofilm formation, planktonic cells and supernatant were removed and each well was then washed with sterile phosphate buffered saline (PBS). After washing, cells were treated with combinations of alginates and/or antibiotics with or without mucin (2.5 g/l) in 100 μl CAMHB. Plates were then wrapped in parafilm and incubated at 37° C. with gentle tilting. Incubation times and conditions varied as described below. The antibiotics and concentration ranges used are shown below.
(§4) Wells were washed with PBS and 100 μl of each concentration of a serial dilution of antibiotic in CAMHB was then added in duplicate. Plates were again wrapped in parafilm and incubated at 37° C. with gentle tilting overnight.
(§5) In all MBEC assays final cell number was assessed as follows. Wells were washed with PBS and biofilms resuspended in 100 μl CAMHB by vigorous pipetting. The optical density at 620 nm (OD620) was measured on a microplate reader (FLUOstar OPTIMA, BMG LABTECH) immediately (0 h) and after incubation at 37° C. at 6 h and 24 h.
(§6) The MBEC value is that concentration of antibiotic that inhibits all growth of the bacteria in the test sample. Bacterial growth is measured by an increase in the absorbance of the sample. Therefore, a reduction in MBEC value is an indication that the sensitivity of the sample to the antibiotic has been increased (i.e. less antibiotic is needed to prevent bacterial growth).
The MBEC assay described above was followed with mucin present throughout. Biofilms were generated in the presence of mucin during a 6 hour incubation, washed and incubated with G-fragments and mucin overnight. After washing with PBS the cultures were exposed to antibiotics (amikacin, tobramycin, oxytetracycline or a combination of amikacin and oxytetracycline) without mucin. Results are shown graphically in FIG. 4 and in tabulated form in Tables 6 and 7. […] In fact, 6% G fragments caused a the 6 hr MBEC value for oxytetracycline to drop to ⅛th of the control value. The 24 hr MBEC values for amikacin and tobramycin were halved. […]

[2] = system: Pseudomonas aeruginosa biofilms; assay: MBEC assay, overnight Pseudomonas biofilms pretreated overnight with G-fragments and mucin, then antibiotic; conditions: overnight biofilm, mucin 2.5 g/L
Protocol: as §1, §2, §3, §4, §5, §6
The MBEC assay described above was followed. Biofilms were generated in plates overnight without mucin. Following a PBS wash, the biofilms were incubated with 0, 1, 2 or 6% G-fragments and mucin overnight. After washing with PBS cells were incubated overnight with antibiotics (amikacin or oxytetracycline) and without mucin. […] 6 hr MBEC values for amikacin and oxytetracycline were halved by 1% G fragments and quartered by 2 and 6% G fragments. 24 hr MBEC values for oxytetracycline were halved by all concentrations of G fragments. 24 hr MBEC values for amikacin were reduced although it was not possible to quantify this reduction.

[3] = system: Pseudomonas aeruginosa biofilms; assay: MBEC assay, Pseudomonas biofilms generated overnight in the presence of mucin and G-fragments, then antibiotic
Protocol: as §1, §2, §3, §4, §5, §6
The MBEC assay described above was followed. Biofilms were generated in plates overnight in the presence of mucin and 0, 1, 2 or 6% G fragments. After washing, biofilms were exposed to oxytetracycline (without mucin) overnight. […] 6 hr MBEC values were halved when 2% and 6% G fragments were used.

[4] = exposed to 0 G-fragments overnight
[5] = exposed to 6% G-fragments overnight
[6] = biofilm generated with mucin 2.5 g/L and G-fragments 0
[7] = biofilm generated with mucin 2.5 g/L and G-fragments 1%
[8] = biofilm generated with mucin 2.5 g/L and G-fragments 2%
[9] = biofilm generated with mucin 2.5 g/L and G-fragments 6%

| SMILES | MBEC value at 6 hr after overnight exposure to antibiotic [1, 4] | MBEC value at 24 hr after overnight exposure to antibiotic [1, 4] | MBEC value at 6 hr after overnight exposure to antibiotic [1, 5] | MBEC value at 24 hr after overnight exposure to antibiotic [1, 5] | MBEC value at 6 hours after overnight exposure to antibiotic ([2]; G-fragments 0) | MBEC value at 24 hours after overnight exposure to antibiotic ([2]; G-fragments 0) | MBEC value at 6 hours after overnight exposure to antibiotic ([2]; G-fragments 1%) | MBEC value at 24 hours after overnight exposure to antibiotic ([2]; G-fragments 1%) | MBEC value at 6 hours after overnight exposure to antibiotic ([2]; G-fragments 2%) | MBEC value at 24 hours after overnight exposure to antibiotic ([2]; G-fragments 2%) | MBEC value at 6 hours after overnight exposure to antibiotic ([2]; G-fragments 6%) | MBEC value at 24 hours after overnight exposure to antibiotic ([2]; G-fragments 6%) | MBEC value at 6 hr after overnight exposure to antibiotic [3, 6] | MBEC value at 24 hr after overnight exposure to antibiotic [3, 6] | MBEC value at 6 hr after overnight exposure to antibiotic [3, 7] | MBEC value at 24 hr after overnight exposure to antibiotic [3, 7] | MBEC value at 6 hr after overnight exposure to antibiotic [3, 8] | MBEC value at 24 hr after overnight exposure to antibiotic [3, 8] | MBEC value at 6 hr after overnight exposure to antibiotic [3, 9] | MBEC value at 24 hr after overnight exposure to antibiotic [3, 9] |
| --- | --- | --- | --- | --- | --- | --- | --- | --- | --- | --- | --- | --- | --- | --- | --- | --- | --- | --- | --- | --- |
| NCC[C@H](O)C(=O)N[C@@H]1C[C@H](N)[C@@H](O[C@H]2O[C@H](CN)[C@@H](O)[C@H](O)[C@H]2O)[C@H](O)[C@H]1O[C@H]1O[C@H](CO)[C@@H](O)[C@H](N)[C@H]1O [Amikacin, amikacin] | 64 µg/mL | >4096 µg/mL | 16 µg/mL | 4096 µg/mL | 2048 µg/mL | >4096 µg/mL | 1024 µg/mL | 4096 µg/mL | 512 µg/mL | 4096 µg/mL | 512 µg/mL | 4096 µg/mL |  |  |  |  |  |  |  |  |
| CN(C)[C@@H]1C(O)=C(C(N)=O)C(=O)[C@@]2(O)C(O)=C3C(=O)c4c(O)cccc4[C@@](C)(O)[C@H]3[C@H](O)[C@@H]12 [Oxytetracycline, oxytetracycline] | 512 µg/mL | 1024 µg/mL | 64 µg/mL | 1024 µg/mL | 512 µg/mL | 2048 µg/mL | 256 µg/mL | 1024 µg/mL | 128 µg/mL | 1024 µg/mL | 128 µg/mL | 1024 µg/mL | 512 µg/mL | 4096 µg/mL | 512 µg/mL | 2048 µg/mL | 256 µg/mL | 2048 µg/mL | 256 µg/mL | 2048 µg/mL |
| NC[C@H]1O[C@H](O[C@H]2[C@H](O)[C@@H](O[C@H]3O[C@H](CO)[C@@H](O)[C@H](N)[C@H]3O)[C@H](N)C[C@@H]2N)[C@H](N)C[C@@H]1O [Tobramycin, tobramycin] | 32 µg/mL | 512 µg/mL | 8 µg/mL | 256 µg/mL |  |  |  |  |  |  |  |  |  |  |  |  |  |  |  |  |
